Test [1] deals with Dual specificity protein kinase CLK1 (Homo sapiens, UniProt P49759).
Test [2] deals with T1, Mitogen-activated protein kinase kinase kinase kinase 3 (Homo sapiens, UniProt Q8IVH8).
T1 sequence (Q8IVH8 whole entry): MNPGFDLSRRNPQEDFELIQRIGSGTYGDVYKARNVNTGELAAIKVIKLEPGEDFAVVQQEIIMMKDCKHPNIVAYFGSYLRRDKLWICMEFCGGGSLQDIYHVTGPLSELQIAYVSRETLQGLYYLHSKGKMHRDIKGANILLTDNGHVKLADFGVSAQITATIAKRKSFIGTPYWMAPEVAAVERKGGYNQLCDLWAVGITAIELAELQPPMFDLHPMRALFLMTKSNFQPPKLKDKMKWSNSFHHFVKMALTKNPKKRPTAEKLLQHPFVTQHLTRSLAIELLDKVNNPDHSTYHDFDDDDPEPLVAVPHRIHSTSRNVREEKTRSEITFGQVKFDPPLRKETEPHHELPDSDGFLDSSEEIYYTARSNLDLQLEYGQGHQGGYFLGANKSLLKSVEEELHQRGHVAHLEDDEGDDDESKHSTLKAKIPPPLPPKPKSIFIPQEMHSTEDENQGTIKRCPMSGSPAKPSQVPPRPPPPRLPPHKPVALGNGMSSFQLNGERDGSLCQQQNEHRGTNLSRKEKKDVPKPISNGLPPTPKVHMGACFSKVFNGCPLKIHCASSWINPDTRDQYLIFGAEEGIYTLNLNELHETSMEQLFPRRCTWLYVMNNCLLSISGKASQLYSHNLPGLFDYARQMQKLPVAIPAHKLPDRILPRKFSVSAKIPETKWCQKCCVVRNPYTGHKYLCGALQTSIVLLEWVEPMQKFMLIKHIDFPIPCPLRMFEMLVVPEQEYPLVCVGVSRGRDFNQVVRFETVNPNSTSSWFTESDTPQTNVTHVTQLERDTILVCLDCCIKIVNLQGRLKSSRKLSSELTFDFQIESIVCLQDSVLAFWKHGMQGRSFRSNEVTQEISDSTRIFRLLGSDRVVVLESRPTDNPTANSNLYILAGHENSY

The target in test [3] is MAP kinase-activated protein kinase 2 (Homo sapiens, UniProt P49137).
The target of test [4] is T2, Bifunctional phosphoribosylaminoimidazole carboxylase/phosphoribosylaminoimidazole succinocarboxamide synthetase (Homo sapiens, UniProt P22234).
T2 sequence (P22234 whole entry): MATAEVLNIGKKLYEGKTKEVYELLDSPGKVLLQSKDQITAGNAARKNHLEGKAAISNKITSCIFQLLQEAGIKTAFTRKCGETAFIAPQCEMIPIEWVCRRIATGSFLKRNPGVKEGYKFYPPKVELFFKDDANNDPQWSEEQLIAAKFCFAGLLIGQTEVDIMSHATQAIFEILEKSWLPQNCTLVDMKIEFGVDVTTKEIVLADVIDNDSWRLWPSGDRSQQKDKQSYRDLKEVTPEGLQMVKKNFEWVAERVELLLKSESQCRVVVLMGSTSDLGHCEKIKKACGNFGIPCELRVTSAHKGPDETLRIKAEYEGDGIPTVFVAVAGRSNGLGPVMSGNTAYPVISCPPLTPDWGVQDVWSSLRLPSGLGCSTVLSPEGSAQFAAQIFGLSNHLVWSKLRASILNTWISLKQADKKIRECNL

For test [5], the target named is T3, Exosome RNA helicase MTR4 (Homo sapiens, UniProt P42285).
T3 sequence (P42285 whole entry): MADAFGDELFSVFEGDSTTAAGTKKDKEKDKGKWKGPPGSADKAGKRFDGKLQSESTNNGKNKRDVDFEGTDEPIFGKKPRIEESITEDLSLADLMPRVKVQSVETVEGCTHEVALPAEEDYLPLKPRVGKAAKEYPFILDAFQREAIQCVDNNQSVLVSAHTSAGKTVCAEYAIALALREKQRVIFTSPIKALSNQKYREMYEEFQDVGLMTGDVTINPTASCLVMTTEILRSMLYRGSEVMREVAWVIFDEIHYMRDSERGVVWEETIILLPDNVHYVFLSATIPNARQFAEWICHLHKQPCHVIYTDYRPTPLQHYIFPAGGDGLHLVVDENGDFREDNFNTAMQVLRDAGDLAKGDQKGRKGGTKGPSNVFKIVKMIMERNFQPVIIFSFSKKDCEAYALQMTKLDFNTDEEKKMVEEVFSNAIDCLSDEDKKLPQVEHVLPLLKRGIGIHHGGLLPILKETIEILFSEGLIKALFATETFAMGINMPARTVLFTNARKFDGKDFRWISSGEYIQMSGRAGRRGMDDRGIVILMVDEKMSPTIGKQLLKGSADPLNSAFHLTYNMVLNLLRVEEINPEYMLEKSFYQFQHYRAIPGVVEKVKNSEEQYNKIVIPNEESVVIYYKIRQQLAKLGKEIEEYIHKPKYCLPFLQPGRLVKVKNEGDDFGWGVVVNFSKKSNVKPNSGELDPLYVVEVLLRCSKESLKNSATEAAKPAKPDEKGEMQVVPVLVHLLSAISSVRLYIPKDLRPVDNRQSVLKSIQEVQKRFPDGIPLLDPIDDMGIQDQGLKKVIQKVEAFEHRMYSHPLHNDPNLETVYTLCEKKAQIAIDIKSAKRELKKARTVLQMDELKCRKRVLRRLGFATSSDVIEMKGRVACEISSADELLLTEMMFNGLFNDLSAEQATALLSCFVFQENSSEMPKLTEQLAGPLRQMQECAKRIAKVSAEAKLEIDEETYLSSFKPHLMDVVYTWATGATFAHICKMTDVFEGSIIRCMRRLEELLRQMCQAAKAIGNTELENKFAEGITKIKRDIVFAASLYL

In test [6] the target is T4, Serine/threonine-protein kinase ULK3 (Homo sapiens, UniProt Q6PHR2).
T4 sequence (Q6PHR2 whole entry): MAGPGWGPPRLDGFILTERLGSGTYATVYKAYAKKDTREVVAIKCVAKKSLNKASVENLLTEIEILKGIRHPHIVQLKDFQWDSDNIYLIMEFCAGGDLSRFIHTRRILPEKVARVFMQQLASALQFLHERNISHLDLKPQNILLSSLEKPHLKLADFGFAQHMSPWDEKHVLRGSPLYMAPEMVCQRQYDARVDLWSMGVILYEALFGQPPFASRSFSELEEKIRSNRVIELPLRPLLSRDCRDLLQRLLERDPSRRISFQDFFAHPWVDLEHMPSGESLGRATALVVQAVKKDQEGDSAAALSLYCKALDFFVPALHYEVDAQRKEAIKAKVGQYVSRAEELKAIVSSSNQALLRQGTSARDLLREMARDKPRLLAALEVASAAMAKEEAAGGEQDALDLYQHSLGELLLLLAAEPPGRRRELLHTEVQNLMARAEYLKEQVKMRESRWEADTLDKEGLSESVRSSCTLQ

The target in the next test is Wee1-like protein kinase (Homo sapiens, UniProt P30291).

Calls of active or inactive are those of the source. Cut-off read from the data, not from the text of the source, for most assays here: actives have a measured Kd and inactives only a lower limit. Some results are limits rather than exact numbers.

Usually Kd stands for the free concentration of one partner at which half of the binding sites on the other are occupied at equilibrium, for simple one-to-one binding.
Note: in the data inactive means no Kd found up to 30 µM.

Chain of Wee1-like protein kinase (P30291 whole entry): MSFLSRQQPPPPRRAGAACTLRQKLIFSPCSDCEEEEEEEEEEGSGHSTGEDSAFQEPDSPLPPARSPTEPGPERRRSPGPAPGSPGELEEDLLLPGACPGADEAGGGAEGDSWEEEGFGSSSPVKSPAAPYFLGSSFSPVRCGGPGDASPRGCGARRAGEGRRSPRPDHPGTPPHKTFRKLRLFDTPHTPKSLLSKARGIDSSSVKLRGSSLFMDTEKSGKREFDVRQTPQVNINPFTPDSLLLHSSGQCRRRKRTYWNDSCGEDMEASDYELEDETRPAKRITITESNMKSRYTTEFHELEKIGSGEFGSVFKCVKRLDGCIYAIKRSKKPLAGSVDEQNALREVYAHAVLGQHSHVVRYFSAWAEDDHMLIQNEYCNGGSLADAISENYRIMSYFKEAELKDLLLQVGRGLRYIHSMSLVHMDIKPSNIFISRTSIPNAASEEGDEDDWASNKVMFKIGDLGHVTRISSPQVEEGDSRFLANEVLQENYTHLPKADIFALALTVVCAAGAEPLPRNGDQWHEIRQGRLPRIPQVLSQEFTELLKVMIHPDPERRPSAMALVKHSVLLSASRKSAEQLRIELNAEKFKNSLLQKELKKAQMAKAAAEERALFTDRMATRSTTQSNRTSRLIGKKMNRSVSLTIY
Chain of MAP kinase-activated protein kinase 2 (P49137 whole entry): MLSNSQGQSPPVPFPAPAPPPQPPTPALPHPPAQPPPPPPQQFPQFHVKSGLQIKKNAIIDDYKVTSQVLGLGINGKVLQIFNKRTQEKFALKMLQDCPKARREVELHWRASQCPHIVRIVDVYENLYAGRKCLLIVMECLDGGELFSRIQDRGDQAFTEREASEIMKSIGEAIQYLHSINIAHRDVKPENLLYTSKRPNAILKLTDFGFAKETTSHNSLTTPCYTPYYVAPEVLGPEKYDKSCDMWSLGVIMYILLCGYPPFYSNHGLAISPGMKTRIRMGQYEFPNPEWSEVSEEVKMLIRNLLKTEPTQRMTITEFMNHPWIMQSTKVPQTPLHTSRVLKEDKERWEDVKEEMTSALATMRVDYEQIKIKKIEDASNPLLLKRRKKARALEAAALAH
Chain of Dual specificity protein kinase CLK1 (P49759 whole entry): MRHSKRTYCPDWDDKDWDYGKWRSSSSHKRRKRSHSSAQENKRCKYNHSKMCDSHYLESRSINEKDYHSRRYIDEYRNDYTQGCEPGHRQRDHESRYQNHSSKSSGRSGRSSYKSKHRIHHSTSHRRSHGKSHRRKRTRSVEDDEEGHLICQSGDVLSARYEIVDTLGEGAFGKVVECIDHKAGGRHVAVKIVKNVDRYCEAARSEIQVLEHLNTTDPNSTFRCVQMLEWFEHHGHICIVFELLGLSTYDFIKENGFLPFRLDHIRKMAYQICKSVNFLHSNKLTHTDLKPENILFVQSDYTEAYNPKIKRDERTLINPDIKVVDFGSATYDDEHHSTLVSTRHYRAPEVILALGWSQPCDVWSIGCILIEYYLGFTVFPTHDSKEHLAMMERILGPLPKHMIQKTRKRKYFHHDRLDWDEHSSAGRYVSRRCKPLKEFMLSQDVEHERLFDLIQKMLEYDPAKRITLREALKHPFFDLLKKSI

`CCN(CCCOc1ccc2c(Nc3cc(CC(=O)Nc4cccc(F)c4)n[nH]3)ncnc2c1)CCOP(=O)(O)O` [BARASERTIB]: the Kd in test [1], in test [2], in test [3], in test [4], in test [5] and in test [6] was > 30 µM (inactive) each time. Also, the Kd on Wee1-like protein kinase was > 30 µM (inactive).

Regarding `COCCN1CCN(Cc2ccc(-c3n[nH]c4c3C(=O)c3c(NC(=O)NN5CCOCC5)cccc3-4)cc2)CC1` [RGB-286638], the Kd in test [1] was 0.002 µM; in test [2], > 30 µM (inactive); in test [3] it was > 30 µM (inactive); in test [4], > 30 µM (inactive); in test [5] it was > 30 µM (inactive); in test [6], > 30 µM (inactive). Also, on Wee1-like protein kinase, the Kd was > 30 µM (inactive).

Take `COc1cccc(Nc2ncnn3ccc(CN4CC[C@@H](N)[C@H](O)C4)c23)c1` [BMS-690514]: the Kd in test [1], in test [2], in test [3], in test [4], in test [5] and in test [6] was > 30 µM (inactive) in each case. For the same compound, at Wee1-like protein kinase, the Kd was > 30 µM (inactive).

For the compound `Cn1c(=O)c(F)c(Nc2ccc(I)cc2F)c2c(=O)n(C[C@@H](O)CO)cnc21` [TAK-733], the Kd in test [1], in test [2], in test [3], in test [4], in test [5] and in test [6] was > 30 µM (inactive) throughout. The Kd on Wee1-like protein kinase was > 30 µM (inactive).

Regarding `COc1cc(Nc2ncc(F)c(Nc3ccc4c(n3)N(COP(=O)(O)O)C(=O)C(C)(C)O4)n2)cc(OC)c1OC` [FOSTAMATINIB], the Kd in test [1], in test [2], in test [3], in test [4], in test [5] and in test [6] was > 30 µM (inactive) throughout. Also, at Wee1-like protein kinase, the Kd was > 30 µM (inactive).

On to `C#Cc1cccc(Nc2ncnc3cc4c(cc23)OCCOCCOCCO4)c1` [ICOTINIB], for which the Kd in test [1], in test [2], in test [3], in test [4], in test [5] and in test [6] was > 30 µM (inactive) each time. Also, the Kd at Wee1-like protein kinase was > 30 µM (inactive).

Turning to `Cn1cc(-c2[nH]c3cc(NC(=O)[C@H](N)C4CCCCC4)cc4c3c2C=NNC4=O)cn1`, the Kd in test [1] is > 30 µM (inactive); in test [2], 1.54 µM (active); in test [3], > 30 µM (inactive); in test [4], > 30 µM (inactive); in test [5], > 30 µM (inactive); in test [6], 1.17 µM (active). Also, at Wee1-like protein kinase, the Kd is 4.86 µM (active).

As to `FC(F)(F)c1ccc(CNc2ccc(Cc3c[nH]c4ncc(Cl)cc34)cn2)cn1` [PEXIDARTINIB], the Kd in test [1], in test [2], in test [3], in test [4], in test [5] and in test [6] was > 30 µM (inactive) each time. For the same compound, the Kd at Wee1-like protein kinase is > 30 µM (inactive).

Regarding `CC(C)(O)CC(=O)NCCn1ccc2ncnc(Nc3ccc(Oc4cccc(C(F)(F)F)c4)c(Cl)c3)c21` [TAK-285], the Kd in test [1], in test [2], in test [3], in test [4], in test [5] and in test [6] was > 30 µM (inactive) throughout. Further, the Kd on Wee1-like protein kinase was > 30 µM (inactive).

For `Cc1cc(C(=O)Nc2cc(Oc3ccc4nc(NC(=O)C5CC5)cn4n3)ccc2C)n(C)n1` [TAK-593], the Kd in test [1], in test [2], in test [3], in test [4], in test [5] and in test [6] was > 30 µM (inactive) each time. Further, the Kd at Wee1-like protein kinase is > 30 µM (inactive).

`COc1cc(F)c(F)c(Nc2ccc(I)cc2F)c1NS(=O)(=O)C1(C[C@H](O)CO)CC1` [REFAMETINIB]: the Kd in test [1], in test [2], in test [3], in test [4], in test [5] and in test [6] was > 30 µM (inactive) each time. Besides, the Kd at Wee1-like protein kinase is > 30 µM (inactive).

`COc1cc2ncnc3c2cc1OCCCCCN(C)Cc1ccc(Br)cc1N3` [JNJ-26483327]: the Kd in test [1], in test [2], in test [3], in test [4], in test [5] and in test [6] was > 30 µM (inactive) in each case. Also, the Kd at Wee1-like protein kinase was > 30 µM (inactive).

On to `C=CC(=O)Nc1cccc(Nc2nc(Nc3ccc(N4CCN(C(C)=O)CC4)cc3OC)ncc2C(F)(F)F)c1` [ROCILETINIB], for which the dissociation constant Kd was 0.651 µM (active) in test [1]; > 30 µM (inactive) in test [2]; > 30 µM (inactive) in test [3]; > 30 µM (inactive) in test [4]; > 30 µM (inactive) in test [5]; > 30 µM (inactive) in test [6]. Besides, the Kd on Wee1-like protein kinase is > 30 µM (inactive).

Source of the values: ChEMBL document CHEMBL3991601, “The target landscape of clinical kinase drugs” (Science, 2017).
